Data taken from patent publication US20240317744A1, “Bicyclic Ureas As Kinase Inhibitors” (Incyte Corporation, priority 2023, published 2024).

Key:
[1] = biological target: T1, catalytic domain (JH1, amino acids 826-1132) of human JAK2 (Homo sapiens, UniProt O60674); assay: JAK2 LanthaScreen JH1 Binding Assay; details: JAK2 JH1 1.5 nM, 50 nM tracer, 2 hours at 25° C.; read-out: JH1 BIND
T1 construct: catalytic domain (JH1, amino acids 826-1132) of human JAK2; FLAG (N); biotin (biotinylated); purchased Carna Biosciences 08-445-20N; host or cells: baculovirus expression system
T1 sequence (O60674 826-1132): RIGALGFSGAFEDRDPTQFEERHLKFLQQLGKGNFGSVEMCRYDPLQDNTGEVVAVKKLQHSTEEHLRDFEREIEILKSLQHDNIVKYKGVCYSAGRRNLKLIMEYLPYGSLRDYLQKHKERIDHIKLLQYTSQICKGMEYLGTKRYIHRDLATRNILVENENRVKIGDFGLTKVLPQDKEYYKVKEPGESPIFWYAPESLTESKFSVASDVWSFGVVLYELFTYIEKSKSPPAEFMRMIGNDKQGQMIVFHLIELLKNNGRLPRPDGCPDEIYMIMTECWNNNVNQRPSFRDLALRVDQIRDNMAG
Description: Example A. JAK2 LanthaScreen JH1 Binding Assay
JAK2 JH1 binding assay utilizes catalytic domain (JH1, amino acids 826-1132) of human JAK2 expressed as N-terminal FLAG-tagged, biotinylated protein in a baculovirus expression system (Carna Biosciences, Product #08-445-20N). The assay was conducted in black 384-well polystyrene plates in a final reaction volume of 20 μL. JAK2 JH1 (1.5 nM) was incubated with compounds (100 nL serially diluted in DMSO) in the presence of 50 nM fluorescent JAK2-JH1 tracer and 0.5 nM Streptavidin-Tb cryptate (Cisbio Part #610SATLB) in assay buffer (50 mM Tris, pH=7.5, 10 mM MgCl2, 0.01% Brij-35, 0.1% BSA, 1 mM EGTA, 5% Glycerol and 5 mM DTT). Non-specific binding was accessed in the presence of 2 mM ATP. After incubation for 2 hours at 25° C., LanthaScreen signals were read on a PHERAstar FS plate reader (BMG LABTECH). Data was analyzed with IDBS XLfit and GraphPad Prism 5.0 software using a four parameter dose response curve to determine IC50 for each compound.

[2] = biological target: catalytic domain (JH1, amino acids 808-1132) of human JAK2 (Homo sapiens, UniProt O60674); assay: JAK2 HTRF Enzyme Activity Assay; type: biochemical; details: ATP 30 µM, 60 minutes at 25° C.; read-out: V617F ENZ 30 UM
catalytic domain (JH1, amino acids 808-1132) of human JAK2, sequence (O60674 808-1132 limits assumed): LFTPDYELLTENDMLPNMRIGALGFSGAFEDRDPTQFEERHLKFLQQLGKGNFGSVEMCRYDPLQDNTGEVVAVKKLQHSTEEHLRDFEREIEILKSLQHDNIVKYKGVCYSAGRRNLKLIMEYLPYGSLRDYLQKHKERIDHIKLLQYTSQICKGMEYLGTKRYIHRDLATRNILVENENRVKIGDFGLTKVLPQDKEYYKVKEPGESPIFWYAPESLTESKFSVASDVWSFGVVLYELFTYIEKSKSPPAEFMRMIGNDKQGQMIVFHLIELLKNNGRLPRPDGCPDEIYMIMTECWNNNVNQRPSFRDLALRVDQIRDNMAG

[3] = biological target: T2, pseudo-kinase domain (JH2, amino-acids 536-812) of human Wild Type JAK2 (Homo sapiens, UniProt O60674, F794H/W659A/W777A); assay: JAK2 LanthaScreen JH2-WT Binding Assay; details: JAK2 JH2-WT 0.145 nM, 50 nM tracer, 1 hour at 25° C.; read-out: JH2 BIND WT
T2 construct: pseudo-kinase domain (JH2, amino-acids 536-812 with 3 surface mutations W659A, W777A, F794H); His (C); purchased BPS Bioscience 79463; host or cells: baculovirus expression system
T2 sequence (O60674 536-812 W659A/W777A/F794H): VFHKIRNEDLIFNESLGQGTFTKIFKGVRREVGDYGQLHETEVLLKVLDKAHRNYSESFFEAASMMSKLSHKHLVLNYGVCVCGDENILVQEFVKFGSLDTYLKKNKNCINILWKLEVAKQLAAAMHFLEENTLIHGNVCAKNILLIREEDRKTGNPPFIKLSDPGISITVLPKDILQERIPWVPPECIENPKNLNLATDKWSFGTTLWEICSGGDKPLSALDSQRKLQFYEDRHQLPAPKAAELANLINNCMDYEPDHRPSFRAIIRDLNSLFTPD
Description: Example B. JAK2 LanthaScreen JH2-WT Binding Assay
JAK2 JH2-WT binding assay utilizes pseudo-kinase domain (JH2, amino-acids 536-812 with 3 surface mutations W659A, W777A, F794H) of human Wild Type JAK2 expressed as C-terminal His-Avi-tagged, biotinylated protein in a baculovirus expression system (BPS Bioscience, Catalog #79463). The assay was conducted in black 384-well polystyrene plates in a final reaction volume of 20 μL. JAK2 JH2-WT (0.145 nM) was incubated with compounds (100 nL serially diluted in DMSO) in the presence of 50 nM Fluorescent JAK2-JH2 Tracer (MedChem Express Catalog #HY-102055) and 0.25 nM Streptavidin-Tb cryptate (Cisbio Part #610SATLB) in assay buffer (50 mM Tris, pH=7.5, 10 mM MgCl2, 0.01% Brij-35, 0.1% BSA, 1 mM EGTA, 5% Glycerol and 5 mM DTT). Non-specific binding was accessed in the presence of 2 mM ATP. After incubation for 1 hour at 25° C., LanthaScreen signals were read on a PHERAstar FS plate reader (BMG LABTECH). Data was analyzed with IDBS XLfit and GraphPad Prism 5.0 software using a four parameter dose response curve to determine IC50 for each compound.

[4] = biological target: T3, pseudo-kinase domain (JH2, amino-acids 536-812) of human V617F mutant JAK2 (Homo sapiens, UniProt O60674, F794H/V617F/W659A/W777A); assay: JAK2 LanthaScreen JH2-V617F Binding Assay; details: JAK2 JH2-V617F 0.26 nM, 50 nM tracer, 1 hour at 25° C.; read-out: JH2 BIND V617F
T3 construct: pseudo-kinase domain (JH2, amino-acids 536-812 with 3 surface mutations W659A, W777A, F794H); His (C); purchased BPS Bioscience 79498; host or cells: baculovirus expression system
T3 sequence (O60674 536-812 V617F/W659A/W777A/F794H): as the sequence (O60674 536-812 W659A/W777A/F794H) above, with V82F counted along it
Summary of the method: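 IC50 values came from four-parameter dose-response fits of LanthaScreen signal, read after compounds sat 1 hour at 25° C with 0.26 nM baculovirus-expressed biotinylated protein, 50 nM fluorescent tracer and 0.25 nM streptavidin-Tb cryptate. Non-specific binding was set with 2 mM ATP.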

SMILES	IC50 [1] [nM]	IC50 [2] [nM]	IC50 [3] [nM]	IC50 [4] [nM]
[2H]C([2H])([2H])n1c(=O)n([C@@H]2CC[C@@H](NC(=O)OC)C2)c2cc(Nc3cc(C(C)(C)O)cc(-c4ncc(C(O)(C(F)(F)F)C(F)(F)F)s4)n3)ncc21 [Example 145, Methyl ((1R,3R)-3-(6-((6-(5-(1,1,1,3,3,3-hexafluoro-2-hydroxypropan-2-yl)thiazol-2-yl)-4-(2-hydroxypropan-2-yl)pyridin-2-yl)amino)-3-(methyl-d3)-2-oxo-2,3-dihydro-1H-imidazo[4,5-c]pyridin-1-yl)cyclopentyl)carbamate]	> 1000	> 1000	≤ 10	≤ 10
COC(=O)N[C@@H]1CC[C@@H](n2c(=O)n(C)c3cnc(Nc4ccc(F)c(-c5ccc(C6CC6)cc5)n4)cc32)C1 [Example 72, Methyl ((1R,3R)-3-(6-((6-(4-cyclopropylphenyl)-5-fluoropyridin-2-yl)amino)-3-methyl-2-oxo-2,3-dihydro-1H-imidazo[4,5-c]pyridin-1-yl)cyclopentyl)carbamate]	> 1000	> 1000	≤ 10	10 to 100
COC(=O)N[C@@H]1CC[C@@H](n2c(=O)n(C)c3cnc(Nc4cccc(-c5ccc6[nH]nc(C)c6c5)n4)cc32)C1 [Example 7, Methyl ((1R,3R)-3-(3-methyl-6-((6-(3-methyl-1H-indazol-5-yl)pyridin-2-yl)amino)-2-oxo-2,3-dihydro-1H-imidazo[4,5-c]pyridin-1-yl)cyclopentyl)carbamate]	> 1000	> 1000	≤ 10	10 to 100
CCOC(=O)NC1CC2(C1)CC(n1c(=O)n(C)c3cnc(Nc4cc(NC(=O)OC)cc(-c5cnn(C)c5)c4)cc31)C2 (centres unmarked) [Example 25, Methyl (3-((1-(6-((ethoxycarbonyl)amino)spiro[3.3]heptan-2-yl)-3-methyl-2-oxo-2,3-dihydro-1H-imidazo[4,5-c]pyridin-6-yl)amino)-5-(1-methyl-1H-pyrazol-4-yl)phenyl)carbamate]	> 1000	> 1000	10 to 100	100 to 500
COC(=O)N[C@@H]1CC[C@@H](n2c(=O)n(C)c3cnc(Nc4ccnc(N5CCC(C(F)(F)F)CC5)n4)cc32)C1 [Example 79, Methyl ((1R,3R)-3-(3-methyl-2-oxo-6-((2-(4-(trifluoromethyl)piperidin-1-yl)pyrimidin-4-yl)amino)-2,3-dihydro-1H-imidazo[4,5-c]pyridin-1-yl)cyclopentyl)carbamate]	> 1000	> 1000	≤ 10	≤ 10
COCCOC(=O)N[C@@H]1CC[C@@H](n2c(=O)n(C)c3cnc(Nc4cc(NC(=O)OC5CCC5)cc(-c5cnn(C)c5)c4)cc32)C1 [Example 43, 2-Methoxyethyl ((1R,3R)-3-(6-((3-((cyclobutoxycarbonyl)amino)-5-(1-methyl-1H-pyrazol-4-yl)phenyl)amino)-3-methyl-2-oxo-2,3-dihydro-1H-imidazo[4,5-c]pyridin-1-yl)cyclopentyl)carbamate]	> 1000	> 1000	10 to 100	10 to 100
COC(=O)N[C@@H]1CC[C@@H](n2c(=O)n(C)c3cnc(Nc4cc(-c5cnn(C)c5)cc(-c5cccc(C#N)c5)n4)cc32)C1 [Example 51, Methyl ((1R,3R)-3-(6-((6-(3-cyanophenyl)-4-(1-methyl-1H-pyrazol-4-yl)pyridin-2-yl)amino)-3-methyl-2-oxo-2,3-dihydro-1H-imidazo[4,5-c]pyridin-1-yl)cyclopentyl)carbamate]	> 1000	> 1000	≤ 10	10 to 100
COC(=O)Nc1cc(Nc2cc3c(cn2)n(C)c(=O)n3[C@@H]2CC[C@@H](NC(=O)OC)C2)cc(C2CCN(C)CC2)c1 [Example 15, Methyl (3-((1-((1R,3R)-3-((methoxycarbonyl)amino)cyclopentyl)-3-methyl-2-oxo-2,3-dihydro-1H-imidazo[4,5-c]pyridin-6-yl)amino)-5-(1-methylpiperidin-4-yl)phenyl)carbamate]	> 1000	> 1000	≤ 10	10 to 100
COC(=O)N[C@@H]1CC[C@@H](n2c(=O)n(C)c3cnc(Nc4cccc(N5CCC(N)C5)n4)cc32)C1 (stereo partly drawn) [Example 64, Methyl ((1R,3R)-3-(6-((6-(3-aminopyrrolidin-1-yl)pyridin-2-yl)amino)-3-methyl-2-oxo-2,3-dihydro-1H-imidazo[4,5-c]pyridin-1-yl)cyclopentyl)carbamate]	> 1000	> 1000	10 to 100	10 to 100
[2H]C([2H])([2H])n1cc(-c2cnc3ccc(Nc4cc5c(cn4)n(C)c(=O)n5[C@@H]4CC[C@@H](NC(=O)OC)C4)nn23)c(F)n1 [Example 59, Methyl ((1R,3R)-3-(6-((3-(3-fluoro-1-(methyl-d3)-1H-pyrazol-4-yl)imidazo[1,2-b]pyridazin-6-yl)amino)-3-methyl-2-oxo-2,3-dihydro-1H-imidazo[4,5-c]pyridin-1-yl)cyclopentyl)carbamate]	> 1000	> 1000	≤ 10	≤ 10
COC(=O)N[C@@H]1CC[C@@H](n2c(=O)n(C)c3cnc(Nc4ccn5nc(-c6cnn(C)c6)cc5n4)cc32)C1 [Example 35, Methyl ((1R,3R)-3-(3-methyl-6-((2-(1-methyl-1H-pyrazol-4-yl)pyrazolo[1,5-a]pyrimidin-5-yl)amino)-2-oxo-2,3-dihydro-1H-imidazo[4,5-c]pyridin-1-yl)cyclopentyl)carbamate]	> 1000	> 1000	10 to 100	10 to 100
[2H]C([2H])([2H])n1c(=O)n([C@@H]2CC[C@@H](NC(=O)OC)C2)c2cc(Nc3cc(CO)nc(-c4ccc(C(F)F)s4)n3)ncc21 [Example 103, Methyl ((1R,3R)-3-(6-((2-(5-(difluoromethyl)thiophen-2-yl)-6-(hydroxymethyl)pyrimidin-4-yl)amino)-3-(methyl-d3)-2-oxo-2,3-dihydro-1H-imidazo[4,5-c]pyridin-1-yl)cyclopentyl)carbamate]	> 1000	> 1000	≤ 10	≤ 10
[2H]C([2H])([2H])n1c(=O)n([C@@H]2CC[C@@H](NC(=O)OC)C2)c2cc(Nc3ccc4c(n3)c(-c3cnn(C(F)(F)F)c3)cn4CCOC)ncc21 [Example 88, Methyl ((1R,3R)-3-(6-((1-(2-methoxyethyl)-3-(1-(trifluoromethyl)-1H-pyrazol-4-yl)-1H-pyrrolo[3,2-b]pyridin-5-yl)amino)-3-(methyl-d3)-2-oxo-2,3-dihydro-1H-imidazo[4,5-c]pyridin-1-yl)cyclopentyl)carbamate]	> 1000	> 1000	≤ 10	≤ 10
COC(=O)N[C@@H]1CC[C@@H](n2c(=O)n(C)c3cnc(Nc4cccc(Oc5ccc6ncccc6c5)n4)cc32)C1 [Example 23, Methyl ((1R,3R)-3-(3-methyl-2-oxo-6-((6-(quinolin-6-yloxy)pyridin-2-yl)amino)-2,3-dihydro-1H-imidazo[4,5-c]pyridin-1-yl)cyclopentyl)carbamate]	> 1000	> 1000	10 to 100	10 to 100
